These results are taken from US20220002332A1, “SCUTELLARIN AMIDE DERIVATIVES, AND PREPARATION METHODS AND USES THEREOF” (HEILONGJIANG BAYI AGRICULTURAL UNIVERSITY, priority 2020, published 2022).

Each structure is given as a SMILES string.

A word on the IC50: it is the concentration at which inhibition is half-maximal. Higher therefore signals a need for much substance.

Common to all, as to type: cell-based
Test [1] concerns human promyelocytic leukemia cell line HL-60. The experiment in a line: Cell inhibitory activity (CCK-8 anti-proliferative) on HL-60. The note with it: HL-60 cells, 72 hours with drug, CCK-8, 450 nm. As to the method: (§1) Cell lines: human promyelocytic leukemia cell line HL-60, human acute leukemia mononuclear macrophage cell line THP-1, human liver cancer cell line HepG-2
(§2) Test Method for Cell Inhibitory Activity
(§3) Cells are routinely cultured in an incubator at 37° C. and 5% CO2 saturated humidity. The culture medium is RPMI1640 cell culture medium containing 10% of heat-inactivated fetal bovine serum, 100 U/mL of penicillin and 100 U/mL of streptomycin. The culture medium is replaced after 48 hours. After the cells adhere to the wall, they are digested with 0.25% trypsin and passage.
(§4) A vial of cells in the logarithmic growth phase and in good condition is digested with a digestion solution (0.125% trypsin+0.01% EDTA); cell count is 2 to 4×10^4 cell/mL; a cell suspension is made and inoculated on a 96-well plate, 100 μL/well, and cultured in a constant temperature CO2 incubator for 24 hours. The medium is replaced; the test drug is added, 100 μL/well, and cultured for 72 hours. CCK-8 is added to a 96-well plate, 50 μL/well, and incubated in an incubator for 4 hours. The supernatant is aspirated; DMSO is added, 200 μL/well, and shaken on a plate shaker for 10 minutes.

Test [2] has as its system human acute leukemia mononuclear macrophage cell line THP-1. The experiment in a line: Cell inhibitory activity (CCK-8 anti-proliferative) on THP-1. The note with it: THP-1 cells, 72 hours with drug, CCK-8, 450 nm. As to the method: as §1, §2, §3, §4
Test [3] deals with human liver cancer cell line HepG-2. Description: Cell inhibitory activity (CCK-8 anti-proliferative) on HepG-2. Particulars: HepG2, HepG-2 cells, 72 hours with drug, CCK-8, 450 nm. How it is done: as §1, §2, §3, §4

For `O=C(Nc1ccccc1)C1OC(Oc2cc3oc(-c4ccc(OCc5ccccc5)cc4)cc(=O)c3c(O)c2OCc2ccccc2)C(O)C(O)C1O` (stereo not drawn) [Example 5], the 50% inhibitory concentration (IC50) in test [1] came out at 20 ± 0.19 µM; in test [2] it was 35.37 ± 0.23 µM; in test [3], 45.7 ± 2.15 µM.
Consider `O=C(Nc1ccc(Cl)cc1)C1OC(Oc2cc3oc(-c4ccc(OCc5ccccc5)cc4)cc(=O)c3c(O)c2OCc2ccccc2)C(O)C(O)C1O` (stereo not drawn) [Example 6], for which the values for the IC50 in test [1], in test [2] and in test [3] were 75.88 ± 0.31 µM, 81.36 ± 0.35 µM and 51.6 ± 0.97 µM, respectively.
The like results for `O=C(Nc1cccc(Cl)c1)C1OC(Oc2cc3oc(-c4ccc(OCc5ccccc5)cc4)cc(=O)c3c(O)c2OCc2ccccc2)C(O)C(O)C1O` (stereo not drawn) [Example 7] were, in that order, 15.43 ± 0.11 µM, 13.67 ± 0.13 µM and 11.2 ± 1.07 µM.
Turning to `Cc1cccc(NC(=O)C2OC(Oc3cc4oc(-c5ccc(OCc6ccccc6)cc5)cc(=O)c4c(O)c3OCc3ccccc3)C(O)C(O)C2O)c1` (stereo not drawn) [Example 8], the figures for the IC50 in test [1], in test [2] and in test [3] were 11.8 ± 0.34 µM, 16.1 ± 0.57 µM and 12 ± 3.52 µM, respectively.
Turning to `Cc1ccccc1NC(=O)C1OC(Oc2cc3oc(-c4ccc(OCc5ccccc5)cc4)cc(=O)c3c(O)c2OCc2ccccc2)C(O)C(O)C1O` (stereo not drawn) [Example 9], the IC50 stood at 27.53 ± 0.15 µM in test [1], 26.8 ± 0.32 µM in test [2] and 19.4 ± 1.11 µM in test [3].
In the case of `Cc1ccc(NC(=O)C2OC(Oc3cc4oc(-c5ccc(OCc6ccccc6)cc5)cc(=O)c4c(O)c3OCc3ccccc3)C(O)C(O)C2O)cc1` (stereo not drawn) [Example 10], the IC50 came to 13 ± 0.28 µM in test [1], 5.75 ± 0.36 µM in test [2] and 7.23 ± 0.31 µM in test [3].
For `O=C(Nc1ccccc1O)C1OC(Oc2cc3oc(-c4ccc(OCc5ccccc5)cc4)cc(=O)c3c(O)c2OCc2ccccc2)C(O)C(O)C1O` (stereo not drawn) [Example 11], the IC50 worked out at 2.91 ± 0.69 µM in test [1], 6.11 ± 0.97 µM in test [2] and 5.11 ± 0.43 µM in test [3].
In the same order, the values of `O=C(Nc1ccc(O)cc1)C1OC(Oc2cc3oc(-c4ccc(OCc5ccccc5)cc4)cc(=O)c3c(O)c2OCc2ccccc2)C(O)C(O)C1O` (stereo not drawn) [Example 12] are 58.9 ± 0.97 µM, 33.9 ± 0.78 µM and 36.1 ± 0.67 µM.
Turning to `COc1ccc(NC(=O)C2OC(Oc3cc4oc(-c5ccc(OCc6ccccc6)cc5)cc(=O)c4c(O)c3OCc3ccccc3)C(O)C(O)C2O)cc1` (stereo not drawn) [Example 13], the IC50 in test [1] is 20.9 ± 0.46 µM; in test [2], 26.3 ± 0.94 µM; in test [3], 23.9 ± 0.88 µM.
With `COc1ccccc1NC(=O)C1OC(Oc2cc3oc(-c4ccc(OCc5ccccc5)cc4)cc(=O)c3c(O)c2OCc2ccccc2)C(O)C(O)C1O` (stereo not drawn) [Example 14], the half-inhibitory concentration (IC50) was found to be 1.7 ± 0.11 µM in test [1], 12.5 ± 0.35 µM in test [2] and 6.23 ± 2.03 µM in test [3].
The like results for `COc1cccc(NC(=O)C2OC(Oc3cc4oc(-c5ccc(OCc6ccccc6)cc5)cc(=O)c4c(O)c3OCc3ccccc3)C(O)C(O)C2O)c1` (stereo not drawn) [Example 15] were, in that order, 4.28 ± 0.31 µM, 31.62 ± 0.25 µM and 29.2 ± 0.77 µM.
On to `CCCNC(=O)C1OC(Oc2cc3oc(-c4ccc(OCc5ccccc5)cc4)cc(=O)c3c(O)c2OCc2ccccc2)C(O)C(O)C1O` (stereo not drawn) [Example 16], for which the half-inhibitory concentration (IC50) in test [1] came out at 30.6 ± 0.57 µM; in test [2], 22.4 ± 0.38 µM; in test [3], 21 ± 0.81 µM.
In the same order, the values of `CC(C)NC(=O)C1OC(Oc2cc3oc(-c4ccc(OCc5ccccc5)cc4)cc(=O)c3c(O)c2OCc2ccccc2)C(O)C(O)C1O` (stereo not drawn) [Example 17] are 54.1 ± 1.21 µM, 37.3 ± 0.93 µM and 39.5 ± 1.03 µM.
For `CCCCCCNC(=O)C1OC(Oc2cc3oc(-c4ccc(OCc5ccccc5)cc4)cc(=O)c3c(O)c2OCc2ccccc2)C(O)C(O)C1O` (stereo not drawn) [Example 18], the values for the IC50 in test [1], in test [2] and in test [3] were 59.1 ± 0.91 µM, 35.8 ± 1.24 µM and 46.2 ± 2.03 µM, respectively.
For the compound `O=C(NC1CCCCC1)C1OC(Oc2cc3oc(-c4ccc(OCc5ccccc5)cc4)cc(=O)c3c(O)c2OCc2ccccc2)C(O)C(O)C1O` (stereo not drawn) [Example 19], the values for the IC50 in test [1], in test [2] and in test [3] were 58.8 ± 2.31 µM, 16.8 ± 0.19 µM and 17.6 ± 1.66 µM, respectively.
The like results for `COc1ccc(-c2cc(=O)c3c(O)c(OC)c(OC4OC(C(=O)Nc5ccccc5)C(O)C(O)C4O)cc3o2)cc1` (stereo not drawn) [Example 20] were, in that order, 85.23 ± 0.75 µM, 63.12 ± 0.46 µM and 16.8 ± 0.19 µM.
For `COc1ccc(-c2cc(=O)c3c(O)c(OC)c(OC4OC(C(=O)Nc5ccc(Cl)cc5)C(O)C(O)C4O)cc3o2)cc1` (stereo not drawn) [Example 21], the IC50 came to 4.86 ± 0.21 µM in test [1], 4.47 ± 0.35 µM in test [2] and 3.21 ± 0.75 µM in test [3].
`COc1ccc(-c2cc(=O)c3c(O)c(OC)c(OC4OC(C(=O)Nc5cccc(Cl)c5)C(O)C(O)C4O)cc3o2)cc1` (stereo not drawn) [Example 22]: the IC50 in test [1] is 3.37 ± 0.22 µM; in test [2] it was 7.02 ± 0.27 µM; in test [3] it was 5.42 ± 0.53 µM.
Consider `COc1ccc(-c2cc(=O)c3c(O)c(OC)c(OC4OC(C(=O)Nc5cccc(C)c5)C(O)C(O)C4O)cc3o2)cc1` (stereo not drawn) [Example 23], for which the IC50 in test [1] was found to be 5.49 ± 0.16 µM; in test [2], 4.62 ± 0.2 µM; in test [3], 3.15 ± 0.46 µM.
Regarding `COc1ccc(-c2cc(=O)c3c(O)c(OC)c(OC4OC(C(=O)Nc5ccccc5C)C(O)C(O)C4O)cc3o2)cc1` (stereo not drawn) [Example 24], the IC50 in test [1] stood at 64.2 ± 3.41 µM; in test [2], 27.8 ± 1.12 µM; in test [3] it was 24.3 ± 0.92 µM.
Consider `COc1ccc(-c2cc(=O)c3c(O)c(OC)c(OC4OC(C(=O)Nc5ccc(C)cc5)C(O)C(O)C4O)cc3o2)cc1` (stereo not drawn) [Example 25], for which the IC50 in test [1] stood at 61.7 ± 2.97 µM; in test [2], 34.4 ± 1.89 µM; in test [3], 39.7 ± 2.31 µM.
As for `COc1ccc(-c2cc(=O)c3c(O)c(OC)c(OC4OC(C(=O)Nc5ccccc5O)C(O)C(O)C4O)cc3o2)cc1` (stereo not drawn) [Example 26], the IC50 in test [1] worked out at 15.4 ± 0.88 µM; in test [2], 40.1 ± 1.57 µM; in test [3], 32.1 ± 2.03 µM.
As to `COc1ccc(-c2cc(=O)c3c(O)c(OC)c(OC4OC(C(=O)Nc5ccc(O)cc5)C(O)C(O)C4O)cc3o2)cc1` (stereo not drawn) [Example 27], the IC50 was 59.3 ± 2.18 µM in test [1], 89.03 ± 0.59 µM in test [2] and 51.2 ± 0.87 µM in test [3].
The like results for `COc1ccc(NC(=O)C2OC(Oc3cc4oc(-c5ccc(OC)cc5)cc(=O)c4c(O)c3OC)C(O)C(O)C2O)cc1` (stereo not drawn) [Example 28] were, in that order, 47.2 ± 2.71 µM, 53.8 ± 3.58 µM and 39.5 ± 1.03 µM.
Consider `COc1ccc(-c2cc(=O)c3c(O)c(OC)c(OC4OC(C(=O)Nc5ccccc5OC)C(O)C(O)C4O)cc3o2)cc1` (stereo not drawn) [Example 29], for which the IC50 was determined as 53.2 ± 3.47 µM in test [1], 19.7 ± 0.89 µM in test [2] and 29 ± 2.26 µM in test [3].
The like results for `COc1ccc(-c2cc(=O)c3c(O)c(OC)c(OC4OC(C(=O)Nc5cccc(OC)c5)C(O)C(O)C4O)cc3o2)cc1` (stereo not drawn) [Example 30] were, in that order, 2.95 ± 0.31 µM, 21 ± 0.49 µM and 15 ± 0.85 µM.
In the same order, the values of `CCCNC(=O)C1OC(Oc2cc3oc(-c4ccc(OC)cc4)cc(=O)c3c(O)c2OC)C(O)C(O)C1O` (stereo not drawn) [Example 31] are 21.8 ± 0.99 µM, 41.6 ± 1.37 µM and 33 ± 1.13 µM.
The like results for `COc1ccc(-c2cc(=O)c3c(O)c(OC)c(OC4OC(C(=O)NC(C)C)C(O)C(O)C4O)cc3o2)cc1` (stereo not drawn) [Example 32] were, in that order, 28.2 ± 1.19 µM, 19 ± 0.36 µM and 26.6 ± 2.19 µM.
In the case of `CCCCCCNC(=O)C1OC(Oc2cc3oc(-c4ccc(OC)cc4)cc(=O)c3c(O)c2OC)C(O)C(O)C1O` (stereo not drawn) [Example 33], the IC50 in test [1] was found to be 4.21 ± 0.15 µM; in test [2] it was 5.76 ± 0.33 µM; in test [3], 3.69 ± 0.63 µM.
The like results for `COc1ccc(-c2cc(=O)c3c(O)c(OC)c(OC4OC(C(=O)NC5CCCCC5)C(O)C(O)C4O)cc3o2)cc1` (stereo not drawn) [Example 34] were, in that order, 28.7 ± 0.54 µM, 19.1 ± 0.78 µM and 11.2 ± 0.72 µM.
In the same order, the values of `O=C(O)[C@H]1O[C@@H](Oc2cc3oc(-c4ccc(O)cc4)cc(=O)c3c(O)c2O)[C@H](O)[C@@H](O)[C@@H]1O` [Scutellarin] are 22.7 ± 1.97 µM, 48.5 ± 2.21 µM and 56.1 ± 1.23 µM.
